Where a name gives a salt, the structure may show the parent alone.
Assay: Plasma and brain concentration at end of zero maze study
Format: in vivo, rat
Conditions: end of zero maze study, 5, 15, 30 mg/kg ip, FIG. 68 and FIG. 69
Description: Terminal sampling. At the end of the study, terminal blood was collected from 2 of the vehicle treated rats (>5 mL) and from all methylone HCl treated rats (500 uL) by CP under CO2. Blood samples were placed into Eppendorf tubes on ice containing 22 μL/mL blood (vehicle treated) or 11 μL EDTA (93 mg/mL) (Methylone HCl treated rats) and gently mixed. After no longer than 30 min, blood samples were centrifuged at 10,000 rpm×3 min and plasma samples (>2 mL (vehicle) or 2×100 μL (Methylone HCl treated) placed into Eppendorf tubes (Vehicle) or 96 well plates on dry ice. Immediately after blood sampling, brains were excised, rinsed in saline, blotted, weighed and snap-frozen in liquid N2. All samples were stored at −20° C. until dispatched on dry ice for analysis.
Terminal sampling. At the end of the study, terminal blood was collected from 2 of the vehicle treated rats (>5 mL) and from all S-methylone HCl treated rats (500 uL) by CP under CO2. Blood samples were placed into Eppendorf tubes on ice containing 22 μL/mL blood (vehicle treated) or 11 μL EDTA (93 mg/mL) (S-methylone HCl treated rats) and gently mixed. […]

## CNC(C)C(=O)c1ccc2c(c1)OCO2 (racemic) [(rac)-Methylone Hydrochloride, 3,4-methylenedioxy-N-methylcathinone hydrochloride]
  concentration in plasma and brain: increased in both brain and plasma at the higher doses
